Laboratory results reported in PMC12495306 (RSC Medicinal Chemistry, 2025).

Key:
[1] = Pharmacokinetic study, blood and brain; assay type: in vivo, mice; settings: 40 mg kg−1 oral
ARα2B [2] = target: T1, ARα2B (Homo sapiens, UniProt P18089); test: ARα2B radioligand; assay type: binding; settings: for inhibition at 10 µM: read-out: ARα2B binding (% inhibition at 10 μM)
T1 sequence (P18089 1-450): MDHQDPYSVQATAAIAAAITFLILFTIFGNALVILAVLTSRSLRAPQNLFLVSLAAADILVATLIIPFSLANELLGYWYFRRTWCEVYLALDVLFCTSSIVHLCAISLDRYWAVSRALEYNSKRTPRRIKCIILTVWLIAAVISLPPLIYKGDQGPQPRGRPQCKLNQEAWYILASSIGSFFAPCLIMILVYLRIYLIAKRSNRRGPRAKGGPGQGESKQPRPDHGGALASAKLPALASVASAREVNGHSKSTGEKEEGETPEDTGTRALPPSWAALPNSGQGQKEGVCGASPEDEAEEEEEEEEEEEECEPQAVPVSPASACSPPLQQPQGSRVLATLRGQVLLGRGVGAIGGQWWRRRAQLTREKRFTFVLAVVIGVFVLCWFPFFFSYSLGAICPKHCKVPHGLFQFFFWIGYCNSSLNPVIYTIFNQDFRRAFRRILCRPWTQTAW

[3] = system: Female Swiss Webster mice; test: Rotarod sensorimotor study; assay type: in vivo; settings: 40 mg kg−1 oral; measured after 10, 30 and 60 minutes; n = 8
[4] = system: Female Swiss Webster mice; test: Open field test; assay type: in vivo; settings: 40 mg kg−1 oral; 40 min after administration; n = 6
ARα2C [5] = target: T2, ARα2C (Homo sapiens, UniProt P18825); test: ARα2C radioligand; assay type: binding
T2 sequence (P18825 1-462): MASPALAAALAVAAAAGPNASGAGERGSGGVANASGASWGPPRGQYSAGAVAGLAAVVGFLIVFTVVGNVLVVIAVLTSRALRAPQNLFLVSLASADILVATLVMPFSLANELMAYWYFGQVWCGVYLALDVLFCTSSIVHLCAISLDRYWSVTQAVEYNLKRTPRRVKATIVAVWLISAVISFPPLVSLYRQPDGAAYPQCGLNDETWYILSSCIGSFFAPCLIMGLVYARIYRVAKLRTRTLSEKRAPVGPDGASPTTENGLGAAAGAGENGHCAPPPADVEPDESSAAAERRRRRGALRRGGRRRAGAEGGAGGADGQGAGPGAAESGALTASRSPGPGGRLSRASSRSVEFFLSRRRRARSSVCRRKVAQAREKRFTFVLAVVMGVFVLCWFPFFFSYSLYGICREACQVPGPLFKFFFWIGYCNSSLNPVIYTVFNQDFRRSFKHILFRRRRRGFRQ

HEK293 cells = test: Cell viability / cytotoxicity assay; assay type: cell-based, human; settings: CellTiter-Glo, 18 h
ARα2A [6] = target: T3, ARα2A (Homo sapiens, UniProt P08913); test: GPCR Tango β-arrestin recruitment assay, ARα2A transfected HEK293; assay type: cell-based; settings: for activation of ARα2A: agonist mode; for antagonism of ARα2A: in the presence of 300 nM norepinephrine
T3 sequence (P08913 1-465): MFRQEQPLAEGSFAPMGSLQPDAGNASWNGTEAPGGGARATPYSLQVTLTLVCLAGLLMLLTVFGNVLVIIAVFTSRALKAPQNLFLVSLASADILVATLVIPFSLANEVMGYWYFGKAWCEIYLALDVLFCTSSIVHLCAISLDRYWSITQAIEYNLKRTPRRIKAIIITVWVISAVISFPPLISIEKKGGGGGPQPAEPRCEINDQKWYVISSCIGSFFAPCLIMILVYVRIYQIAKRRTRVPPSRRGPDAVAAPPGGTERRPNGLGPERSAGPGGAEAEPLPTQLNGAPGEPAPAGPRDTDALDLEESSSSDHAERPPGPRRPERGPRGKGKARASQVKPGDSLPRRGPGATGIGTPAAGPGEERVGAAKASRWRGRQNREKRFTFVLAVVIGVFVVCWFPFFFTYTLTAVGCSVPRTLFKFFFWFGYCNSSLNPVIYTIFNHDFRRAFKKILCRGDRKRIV

ARα2A [7] = target: T3, ARα2A; test: ARα2A radioligand; assay type: binding
ARα2B [8] = target: T1, ARα2B; assay type: cell-based; settings: for activation of ARα2B: agonist mode; for antagonism of ARα2B: in the presence of 300 nM norepinephrine
ARα2C [9] = target: T2, ARα2C; test: GPCR Tango β-arrestin recruitment assay, ARα2C transfected HEK293; assay type: cell-based; settings: for activation of ARα2C: agonist mode; for antagonism of ARα2C: in the presence of 300 nM norepinephrine
mice [10] = settings: cited from earlier work
mice [11] = settings: cited from earlier work; remark: listed apart in the source
[12] = ARα2A binding Ki, competition with 3H-Rauwolscinein, concentration response

Row | SMILES | Ki (ARα2B [2]) | inhibition at 10 µM (ARα2B [2]) | sensorimotor inhibition on rotarod [3] | sedation (open field test) [4] | Ki (ARα2C [5]) | Cytotoxicity LD50 (HEK293 cells) | activation of ARα2A (ARα2A [6]) | antagonism of ARα2A (ARα2A [6]) | Ki (ARα2A [7]; [12]) | activation of ARα2B (ARα2B [8]) | antagonism of ARα2B (ARα2B [8]) | activation of ARα2C (ARα2C [9]) | antagonism of ARα2C (ARα2C [9]) | also measured
1 | CC1N=C(c2ccccc2F)c2cc(Nc3ccccc3)ccc2NC1=O (stereo not drawn) [Compound 2, 7-Anilino-5-(2-fluorophenyl)-3-methyl-1,3-dihydro-2H-1,4-benzodiazepin-2-one] | 511 nM | 90% | did not observe any sensorimotor inhibition | no sedation | 1130 nM | 100 ± 19 µM | did not activate | antagonized | 3930 nM | did not activate | antagonized | did not activate | antagonized | oral availability ([1]; mice): orally available; blood : brain ratios ([1]; 10, 30, 60 min): increased over time; concentration in blood and brain ([1]; as early as 10 min, n = 4): appreciable concentration of 2 in blood and brain that exceeded the affinity of 2 for the target receptor; selectivity for α2B over the α2A subtype (ARα2B [2]; from Ki values): 7.7 fold; selectivity for α2B over the α2C subtype (ARα2B [2]; from Ki values): 2.2 fold; Ki (ARα2A [7]; ARα2A Ki, rounded value): 3900 nM
2 | Cc1cccc([C@H](C)c2cnc[nH]2)c1C [dexmedetomidine] |  |  |  |  |  |  |  |  |  |  |  |  |  | activity scores (OFT) (mice [10]; 30 μg kg−1 (s.c.)): significantly reduced the activity scores; ability of mice to stay on the rotating rod (mice [11]; i.p. doses of higher than 10 μg kg−1): reduced the ability of mice to stay on the rotating rod
3 | CCC1(c2cnc[nH]2)Cc2ccccc2C1 [atipamezole] |  |  |  |  |  |  |  |  |  |  |  |  |  | locomotion (OFT) (mice [10]; 1 mg kg−1): did not modulate locomotion
4 | Cc1ccc(N(CC2=NCCN2)c2cccc(O)c2)cc1 [phentolamine] |  |  |  |  |  |  |  |  |  |  |  |  |  | ability of mice to complete a rotarod exercise (mice [11]; 4 mg kg−1 (i.p.)): do not usually alter the ability of mice to complete a rotarod exercise
5 | COc1ccccc1Nc1ccc2c(c1)C(c1ccccc1F)=NC(C)C(=O)N2 (stereo not drawn) [Compound 17, 5-(2-Fluorophenyl)-7-(2-methoxyanilino)-3-methyl-1,3-dihydro-2H-1,4-benzodiazepin-2-one] | 607 nM | 91% | did not observe any sensorimotor inhibition | no sedation | 738 nM | 148 ± 12 µM | did not activate | antagonized | 2050 nM | did not activate | antagonized | did not activate | antagonized | 
